From patent US4654326A, “Inhibition of plant viruses with oligonucleotides” (priority 1984, dated 1987)
“Also recorded” adds a separate entry of the source. Where two headings read alike, the source gives them in different places.

Experiments:
TMV [1] = assay: TMV replication in TMV-infected tobacco leaf discs (ELISA); type: cell-based, tobacco mosaic virus; details: up to 2×10^-7 M (FIG. 1)
Procedure: Plant material treatment and measurement of infectivity. Partially purified AVF was prepared. The growth of N. glutinosa, N. tabacum Var. "Samsun", N. tabacum cv. Samsun NN, and preparation and inoculation of protoplasts were as described. To evaluate the effect of 2',5'-cores, nucleotides and nucleosides on TMV replication, various concentrations were added to 10 ml of protoplast suspension (1×10^5 cells/ml) at various times after inoculation with TMV. Protoplasts were incubated at 25° C. under continuous illumination of about 1500 Lx. At various times protoplasts were collected by centrifugation and homogenized. The homogenate was inoculated onto 12 half-leaves of N. glutinosa plants and compared to a standard solution of purified TMV on the opposite half-leaves. Lesion counts were adjusted to 10^6 live protoplasts and calibrated. Control protoplasts (no Nucleotides added) were assayed simultaneously. The assays for antiviral activity on TMV-infected tobacco leaf discs were done by enzyme-linked immunosorbent assay. The ability of the 2',5'-cores, nucleosides, and nucleotides to inhibit TMV replication in the intact plant was determined by infectivity tests as follows. […]
TMV-infected tobacco leaf discs, treatment and TMV determination. […] Discs were removed at various times after TMV inoculation and their TMV content was determined. […]

TMV [2] = assay: Inhibition of TMV replication in intact N. glutinosa leaves (local lesion infectivity test); type: in vivo, tobacco mosaic virus; details: for inhibition at 1 µM: Tobacco mosaic virus, 48 h, read-out: Inhibition of TMV replication in N. glutinosa leaves; for Inhibition of TMV replication in N. glutinosa leaves: 1 × 10^-6 M in the infecting solution, 48 hours after infection (Table 3)
TMV [3] = assay: Inhibition of TMV replication in tobacco protoplasts (homogenates assayed for local lesions); type: cell-based, tobacco mosaic virus; details: for inhibition at 0.1 µM: Tobacco mosaic virus, 1 × 10^-7 M, added within 3 hours of infection, average of four experiments
Procedure: Plant material treatment and measurement of infectivity. Partially purified AVF was prepared. The growth of N. glutinosa, N. tabacum Var. "Samsun", N. tabacum cv. Samsun NN, and preparation and inoculation of protoplasts were as described. To evaluate the effect of 2',5'-cores, nucleotides and nucleosides on TMV replication, various concentrations were added to 10 ml of protoplast suspension (1×10^5 cells/ml) at various times after inoculation with TMV. Protoplasts were incubated at 25° C. under continuous illumination of about 1500 Lx. At various times protoplasts were collected by centrifugation and homogenized. The homogenate was inoculated onto 12 half-leaves of N. glutinosa plants and compared to a standard solution of purified TMV on the opposite half-leaves. Lesion counts were adjusted to 10^6 live protoplasts and calibrated. Control protoplasts (no Nucleotides added) were assayed simultaneously. The assays for antiviral activity on TMV-infected tobacco leaf discs were done by enzyme-linked immunosorbent assay. The ability of the 2',5'-cores, nucleosides, and nucleotides to inhibit TMV replication in the intact plant was determined by infectivity tests as follows. Solutions containing 5 μg/ml TMV, 0.1 g carborundum (100 Tyler mesh), and 2',5'-cores, nucleosides, or nucleotides were applied onto 12 half-leaves of N. glutinosa. The remaining half-leaves were controls (inoculated with a solution containing no nucleotides). The infection was allowed to proceed 48 hours under continuous illumination.
the TMVinfected protoplasts within 3 hours of infection.
^b Average of four experiments.
by the 2',5cores, nucleosides and nucleotides was calculated as the
percent of local leasions produced in N. glutinosa treated by homogenates
of protoplasts compared to nontreated protoplasts.

N. glutinosa = type: in vivo; details: non-infected plants, 1×10^-6 M, two week period
Procedure: Effect of 2',5'-adenylate trimer core and its analogs on TMV replication in intact plants. […] The cores inhibited the formation of local lesions following TMV infection by 89-99% (Table 3). […] Non-infected plants were treated with 1×10^-6 M 2',5'adenylate trimer core, 2',5'-cordycepin trimer core, 2',5'-A-A-ara-A, and 2',5'-A-A-Tu (data not shown).

[4] = read-out: Inhibition of TMV replication after 24 hr
[5] = read-out: Inhibition of TMV replication after 48 hr
[6] = read-out: Inhibition of TMV replication after 72 hr
[7] = 1×10^-6 M in the TMV-infecting solution

Nc1ncnc2c1ncn2[C@@H]1O[C@H](COP(=O)(O)O)[C@@H](O)[C@H]1O [AMP]
Inhibition of TMV replication in tobacco leaf discs (in words) (TMV [1]): no inhibition of TMV replication
inhibition at 1 µM (TMV [2]): 10%
Inhibition of TMV replication in protoplasts (in words) (TMV [3]): less inhibitory; also recorded: some inhibition of TMV replication
inhibition at 0.1 µM (TMV [3]; [4]): 22%
inhibition at 0.1 µM (TMV [3]; [5]): 33%

Nc1ncnc2c1ncn2[C@@H]1O[C@H](CO)[C@@H](O)[C@H]1O [Adenosine, adenosine]
Inhibition of TMV replication in tobacco leaf discs (in words) (TMV [1]): no inhibition of TMV replication
inhibition at 1 µM (TMV [2]): 0%
Inhibition of TMV replication in protoplasts (in words) (TMV [3]): less inhibitory
inhibition at 0.1 µM (TMV [3]; [4]): 14%
inhibition at 0.1 µM (TMV [3]; [5]): 0%
Inhibition of TMV replication in protoplasts (in words) (TMV [3]; listed as adenosine): some inhibition of TMV replication

Nc1ncnc2c1ncn2[C@@H]1O[C@H](COP(=O)(O)O)[C@@H](O)[C@@H]1O [Ara-AMP]
inhibition at 1 µM (TMV [2]): 0%

Nc1ncnc2c1ncn2[C@@H]1O[C@H](CO)[C@@H](O)[C@@H]1O [Ara-a]
inhibition at 1 µM (TMV [2]): 0%

Nc1ncnc2c1ncn2[C@@H]1O[C@H](COP(=O)(O)O)C[C@H]1O [Cordycepin monophosphate, Cordycepin 5'-monophosphate]
inhibition at 1 µM (TMV [2]): 0%

Nc1ncnc2c1ncn2[C@@H]1O[C@H](CO)C[C@H]1O [Cordycepin, cordycepin]
inhibition at 1 µM (TMV [2]): 0%
Inhibition of TMV replication in protoplasts (in words) (TMV [3]): less inhibitory
inhibition at 0.1 µM (TMV [3]; [5]): 21%
inhibition at 0.1 µM (TMV [3]; [6]): 32%

OC[C@H]1O[C@@H](n2cnc3c(O)ncnc32)[C@H](O)[C@@H]1O [Inosine, inosine]
inhibition at 1 µM (TMV [2]): 0%
Inhibition of TMV replication in protoplasts (in words) (TMV [3]): less inhibitory
inhibition at 0.1 µM (TMV [3]; [5]): 22%
inhibition at 0.1 µM (TMV [3]; [6]): 25%

Nc1ncnc2c1ccn2[C@@H]1O[C@H](COP(=O)(O)O)[C@@H](O)[C@H]1O [TuMP, tubercidin 5'-monophosphate]
inhibition at 1 µM (TMV [2]): 0%

Nc1ncnc2c1ccn2[C@@H]1O[C@H](CO)[C@@H](O)[C@H]1O [Tubercidin, tubercidin]
inhibition at 1 µM (TMV [2]): 0%

adenylyl-(2' 5')-adenylyl-(2' 5')-9-β-D-arabinofuranosyladenine [2',5'-A-A-ara-A]
Inhibition of TMV replication in N. glutinosa (in words) (TMV [2]; [7]): potent inhibitors of TMV replication
Inhibition of TMV replication in N. glutinosa leaves (TMV [2]): 94%
Inhibition of TMV replication in N. glutinosa (in words) (TMV [2]; no single concentration stated): inhibition of TMV replication
Inhibition of TMV replication in N. glutinosa (in words) (TMV [2]; no single concentration stated, listed as A-A-ara-A): also inhibited TMV replication
Toxicity (chlorosis or necrosis) (N. glutinosa): No toxicity (chlorosis or necrosis) was observed

adenylyl-(2' 5')-adenylyl-(2' 5)-tubercidin [2',5'-A-A-Tu]
Inhibition of TMV replication in N. glutinosa (in words) (TMV [2]; [7]): potent inhibitors of TMV replication
Inhibition of TMV replication in N. glutinosa leaves (TMV [2]): 95%
Inhibition of TMV replication in N. glutinosa (in words) (TMV [2]; no single concentration stated): also inhibited TMV replication
Toxicity (chlorosis or necrosis) (N. glutinosa): No toxicity (chlorosis or necrosis) was observed
